This passage reports MIC and CC50 results from ChEMBL document CHEMBL4513134, “CO-ADD screening of University of Queensland (Australia) compounds” (2021).

In brackets after ≈: the same amount, converted by molar mass.

Experiment [1] relates to Staphylococcus aureus. In words: microbe, parasite or virus in culture. As to conditions: ATCC 43300, 18 h, ASSAY_TEST Inhibition of Bacterial Growth, detection method Absorption (OD600), MEDIA CAMHB, plate type 384well, NBS, CORNING #3640.
Description: Antibacterial activity against Staphylococcus aureus MRSA ATCC 43300 (CO-ADD:GP_020); MIC in CAMBH media, using NBS plates, by OD(600)
For experiment [2], the system named is HEK293. As to the kind of experiment: cells. The settings on record: ASSAY_TEST Inhibition of Cell Viability, detection method Resazurin, Fluorescence (ex560/em590), MEDIA DMEM with 10% FBS, plate type 384well, TC, CORNING #3712, time 18 hr. The format is functional, Homo sapiens, ATCC CRL1573.
In experiment [3] the test system is Cryptococcus neoformans.
Description: Antifungal activity against Cryptococcus neoformans H99 ATCC 208821 (CO-ADD:FG_002); MIC in YNB media using NBS plates, by Resazurin OD(600-570)
Experiment [4] concerns Escherichia coli. In words: microbe, parasite or virus in culture. As to conditions: ATCC 25922, 18 h, ASSAY_TEST Inhibition of Bacterial Growth, detection method Absorption (OD600), MEDIA CAMHB, plate type 384well, NBS, CORNING #3640.
Description: Antibacterial activity against Escherichia coli ATCC 25922 (CO-ADD:GN_001); MIC in CAMBH media using NBS plates, by OD(600)
The subject of experiment [5] is Klebsiella pneumoniae. As to the kind of experiment: microbe, parasite or virus in culture. The settings on record: ATCC 700603, 18 h, ASSAY_TEST Inhibition of Bacterial Growth, detection method Absorption (OD600), MEDIA CAMHB, plate type 384well, NBS, CORNING #3640.
Description: Antibacterial activity against Klebsiella pneumoniae MDR ATCC 70063 (CO-ADD:GN_003); MIC in CAMBH media using NBS plates, by OD(600)
Experiment [6] has as its system Pseudomonas aeruginosa. In words: microbe, parasite or virus in culture. As to conditions: ATCC 27853, 18 h, ASSAY_TEST Inhibition of Bacterial Growth, detection method Absorption (OD600), MEDIA CAMHB, plate type 384well, NBS, CORNING #3640.
Description: Antibacterial activity against Pseudomonas aeruginosa ATCC 27853 (CO-ADD:GN_042); MIC in CAMBH media using NBS plates, by OD(600)
Experiment [7] deals with Acinetobacter baumannii. In words: microbe, parasite or virus in culture. As to conditions: ATCC 19606, 18 h, ASSAY_TEST Inhibition of Bacterial Growth, detection method Absorption (OD600), MEDIA CAMHB, plate type 384well, NBS, CORNING #3640.
Description: Antibacterial activity against Acinetobacter baumannii ATCC 19606 (CO-ADD:GN_034); MIC in CAMBH media using NBS plates, by OD600
Experiment [8] deals with Candida albicans. As to the kind of experiment: microbe, parasite or virus in culture. As to conditions: ATCC 90028, ASSAY_TEST Inhibition of Fungal Growth, detection method Absorption (OD530), plate type 384well, NBS, CORNING #3640.
Description: Antifungal activity against Candida albicans ATCC 90028 (CO-ADD:FG_001); MIC in YNB media using NBS plates, by OD630
The mark [9] stands for this setting: Homo sapiens, ATCC CRL1573, HEK293, read-out: CC50.

`CN(Cc1ccc(OC(F)F)cc1)C(=O)c1ncc([N+](=O)[O-])[nH]1`: in experiment [1], the MIC was 16 µg/mL (≈ 49 µM).

`Cc1ccc(CNC(=O)c2nc([N+](=O)[O-])c[nH]2)cc1`: the MIC in experiment [1] was determined as 32 µg/mL (≈ 123 µM).

For the molecule `Cn1c([N+](=O)[O-])cnc1C(=O)OC1CCCCC1`, in experiment [2] (setting [9]), the CC50 was > 32 µg/mL. For the same molecule, the MIC in experiment [3], in experiment [1], in experiment [4], in experiment [5], in experiment [6] and in experiment [7] was > 32 µg/mL throughout. The MIC in experiment [8] was > 32 µg/mL.

`Cn1c([N+](=O)[O-])cnc1C(=O)NC1CCCCC1`: the CC50 in experiment [2] (setting [9]) is > 32 µg/mL. In addition, the MIC in experiment [3], in experiment [1], in experiment [4], in experiment [5], in experiment [6] and in experiment [7] was > 32 µg/mL throughout. In addition, in experiment [8], the MIC is > 32 µg/mL.

In the case of `CN(Cc1ccccc1)C(=O)c1ncc([N+](=O)[O-])n1C`, the CC50 in experiment [2] (setting [9]) is > 32 µg/mL. Also, the MIC in experiment [3], in experiment [1], in experiment [4], in experiment [5], in experiment [6] and in experiment [7] was > 32 µg/mL in each case. In experiment [8], the MIC is > 32 µg/mL.

On to `Cc1cn2cc([N+](=O)[O-])nc2c(OCc2ccc(OC(F)(F)F)cc2)n1`, for which, in experiment [2], the CC50 is >100.

Take `Cc1ccc(CCNC(=O)c2ncc([N+](=O)[O-])[nH]2)cc1`: in experiment [1], the MIC came out at 32 µg/mL (≈ 117 µM).

In the case of `CC(=O)OCCOc1nc(C)cn2cc([N+](=O)[O-])nc12`, in experiment [2], the CC50 is on record as >100.

`CCOC(=O)c1nc([N+](=O)[O-])cn1Cc1ccc(OC(F)(F)F)cc1`: in experiment [2], the CC50 is listed as >100.

Turning to `O=C(O)C(F)(F)F.O=c1nc(N2CCN(CC3CCCCC3)CC2)sc2c([N+](=O)[O-])cc(C(F)(F)F)cc12`, the CC50 in experiment [2] is >50.

Regarding `CN(C)C(=O)c1nc([N+](=O)[O-])cn1Cc1ccc(OC(F)(F)F)cc1`, in experiment [2], the CC50 was >100.

In experiment [1], `O=C(NCc1cccc(OC(F)(F)F)c1)c1ncc([N+](=O)[O-])[nH]1` came in with an MIC of 16 µg/mL (≈ 48.5 µM).

On to `Cc1cn2cc([N+](=O)[O-])nc2c(=O)[nH]1`, for which, in experiment [2], the CC50 is on record as >100.

Consider `NC(=O)c1nc([N+](=O)[O-])cn1CCO`, for which the CC50 in experiment [2] is >100.

For `CCOC(=O)c1nc([N+](=O)[O-])c[nH]1`, the CC50 in experiment [2] is on record as >100.

On to `C[C@H]1COC2(CCN(c3nc(=O)c4cc(C(F)(F)F)cc([N+](=O)[O-])c4s3)CC2)O1` [BTZ-043], for which, in experiment [2], the CC50 is >100.

Turning to `O=[N+]([O-])c1cn2ccnc(OCCc3ccc(OC(F)(F)F)cc3)c2n1`, in experiment [2], the CC50 is given as >100.

As to `O=c1[nH]c(-c2ccc(OC(F)(F)F)cc2)cn2cc([N+](=O)[O-])nc12`, the CC50 in experiment [2] is on record as >100.

`Cc1c(C)n2cc([N+](=O)[O-])nc2c(=O)n1Cc1ccc(OC(F)(F)F)cc1`: the CC50 in experiment [2] was >100.
